This note sets out measurements from patent US8691815B2, “Substituted oxindole derivatives, drugs containing said derivatives and the use thereof” (AbbVie Deutschland GmbH & Co. KG, priority 2005, dated 2014).

In general, Ki refers to a dissociation constant, usually derived from enzyme kinetics or from competition with a known ligand. Read a high Ki as a looser hold on the target.

Counter-ions that a name gives are not always drawn.

The target of this test is T1, human vasopressin V1b receptor (Homo sapiens, UniProt P47901).
T1 construct: expressed in transfected cells; host or cells: CHO-K1 (cell line hV1b-3H2_CHO), membrane preparation
T1 sequence (P47901 1-424): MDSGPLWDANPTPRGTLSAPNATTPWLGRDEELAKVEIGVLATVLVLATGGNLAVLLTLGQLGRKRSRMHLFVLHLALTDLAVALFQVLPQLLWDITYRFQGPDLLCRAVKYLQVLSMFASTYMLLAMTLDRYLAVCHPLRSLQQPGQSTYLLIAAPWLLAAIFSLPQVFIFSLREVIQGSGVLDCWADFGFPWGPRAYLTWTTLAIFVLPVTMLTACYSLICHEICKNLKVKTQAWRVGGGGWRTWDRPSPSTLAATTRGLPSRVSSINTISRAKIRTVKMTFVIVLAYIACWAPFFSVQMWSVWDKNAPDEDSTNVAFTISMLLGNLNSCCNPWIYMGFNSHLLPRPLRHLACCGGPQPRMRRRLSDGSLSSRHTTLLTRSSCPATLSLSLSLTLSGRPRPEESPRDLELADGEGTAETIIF
In words: Vasopressin V1b receptor binding assay. To be noted: membranes from CHO-K1 cells with stably expressed human V1b receptors, displacement of 1.5 nM 3H-AVP. The gist of the method:
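Membranes were incubated with radioligand for 60 min at room temperature in 50 mM Tris, 10 mM MgCl2, 0.1% BSA, pH 7.4, with 2% DMSO final. Nonspecific binding was defined with 1 uM AVP. Bound ligand was collected by GF/B filtration and counted by scintillation, and binding parameters were derived by nonlinear regression.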

As to `COc1cc(CN2CCOCC2)ccc1C1(N2CCC[C@H]2C(=O)N(C)C)C(=O)N(S(=O)(=O)c2ccc(F)cc2)c2ccc(Cl)cc21` (stereo partly drawn) [Example 77, (S)-1-[5-Chloro-1-(4-fluorobenzenesulfonyl)-3-(2-methoxy-4-morpholin-4-ylmethyl-phenyl)-2-oxo-2,3-dihydro-1H-indol-3-yl]pyrrolidine-2-dimethylcarboxamide, trifluoroacetic acid salt], the Ki lay within 10 to 100 nM. The result for `COc1cc(CN2CCNCC2)ccc1C1(N2CCC[C@H]2C(=O)N(C)C)C(=O)N(S(=O)(=O)c2ccc(F)cc2)c2ccc(Cl)cc21` (stereo partly drawn) [Example 78, (S)-1-[5-Chloro-1-(4-fluorobenzenesulfonyl)-3-(2-methoxy-4-piperazin-1-ylmethyl-phenyl)-2-oxo-2,3-dihydro-1H-indol-3-yl]pyrrolidine-2-dimethylcarboxamide, trifluoroacetic acid salt] reads less than 1 nM; that for `COc1ccc(S(=O)(=O)N2C(=O)C(c3ccc(CN4CCNCC4)cc3OC)(N3CCC[C@H]3C(=O)N(C)C)c3cc(Cl)ccc32)cc1` (stereo partly drawn) [Example 79, (S)-1-[5-Chloro-1-(4-methoxybenzenesulfonyl)-3-(2-methoxy-4-piperazin-1-yl-methylphenyl)-2-oxo-2,3-dihydro-1H-indol-3-yl]pyrrolidine-2-dimethylcarboxamide, trifluoroacetic acid salt], less than 1 nM; that for `COc1cc(CN2CCN(C)CC2)ccc1C1(N2CCC[C@H]2C(=O)N(C)C)C(=O)N(S(=O)(=O)c2ccc(C#N)cc2)c2ccc(Cl)cc21` (stereo partly drawn) [Example 80, (S)-1-{5-Chloro-1-(4-cyanobenzenesulfonyl)-3-[2-methoxy-4-(4-methylpiperazin-1-ylmethyl)phenyl]-2-oxo-2,3-dihydro-1H-indol-3-yl}pyrrolidine-2-carboxylic acid dimethylamide, trifluoroacetic acid salt], less than 1 nM. In turn, `COc1cc(CN2CCOCC2)ccc1C1(N2CCC[C@H]2C(=O)N(C)C)C(=O)N(S(=O)(=O)c2ccc(C#N)cc2)c2ccc(Cl)cc21` (stereo partly drawn) [Example 81, (S)-1-[5-Chloro-1-(4-cyanobenzenesulfonyl)-3-(2-methoxy-4-morpholin-4-ylmethyl-phenyl)-2-oxo-2,3-dihydro-1H-indol-3-yl]pyrrolidine-2-dimethylcarboxamide, trifluoroacetic acid salt] yielded a Ki of 1 to 10 nM. `COc1cc(CN2CCNCC2)ccc1C1(N2CCC[C@H]2C(=O)N(C)C)C(=O)N(S(=O)(=O)c2ccc(C#N)cc2)c2ccc(Cl)cc21` (stereo partly drawn) [Example 82, (S)-1-[5-Chloro-1-(4-cyanobenzenesulfonyl)-3-(2-methoxy-4-piperazin-1-ylmethyl-phenyl)-2-oxo-2,3-dihydro-1H-indol-3-yl]pyrrolidine-2-dimethylcarboxamide, trifluoroacetic acid salt] yielded a Ki of less than 1 nM.

In turn, `COc1ccc(S(=O)(=O)N2C(=O)C(c3ccc(CN4CCCCC4)cc3OC)(N3CCC[C@H]3C(=O)N(C)C)c3cc(Cl)ccc32)cc1` (stereo partly drawn) [Example 83, (S)-1-[5-Chloro-1-(4-methoxybenzenesulfonyl)-3-(2-methoxy-4-piperidin-1-ylmethyl-phenyl)-2-oxo-2,3-dihydro-1H-indol-3-yl]pyrrolidine-2-dimethylcarboxamide, trifluoroacetic acid salt] had a Ki of less than 1 nM.

Turning to `CCN(C)Cc1ccc(C2(N3CCC[C@H]3C(=O)N(C)C)C(=O)N(S(=O)(=O)c3ccc(OC)cc3)c3ccc(Cl)cc32)c(OC)c1` (stereo partly drawn) [Example 84, (S)-1-[5-Chloro-3-{4-[(ethylmethylamino)methyl]-2-methoxyphenyl}-1-(4-methoxy-benzenesulfonyl)-2-oxo-2,3-dihydro-1H-indol-3-yl]pyrrolidine-2-dimethylcarboxamide, trifluoroacetic acid salt], the Ki is less than 1 nM.
